Converted amounts (≈) assume the structure as drawn. Positions of bridges follow the written chain, without caps; N, C: chain ends. Residues, ends and D or L forms follow the SMILES beside them.
What was measured:
[1] = test system: S. epidermidis (CI 1607BL1D39); assay: microbe, parasite or virus in culture; format: cell-based, Staphylococcus epidermidis; conditions: CI 1607BL1D39, 18 h
Method: (§1) The minimum inhibitory concentration (MIC) of the Brevinin-1BW was measured in 96-well microtiter plates according to the Clinical and Laboratory Standards Institute (CLSI). The activated strains were treated with Mueller Hinton Agar (MHA) solid medium. Single colonies were picked and expanded to the logarithmic growth phase, and the solution was diluted to 2 × 10^6 CFU/mL using the McFarland turbidity standard. The MIC was determined with the two-fold dilution method. Briefly, 50 μL of Mueller Hinton (MH) medium was added to a 96-well plate in advance. Then, 50 μL of AMP solution was added to the first well, and 50 μL was pipetted into the next well after mixing using a row gun, while 50 μL was discarded from the last well. Final concentrations of Brevinin-1BW were 100, 50, 25, 12.5, 6.25, and 3.125 μg/mL. A 50 μL volume of the diluted bacterial solution was added, and the final concentration of the bacterial solution was 1 × 10^6 CFU/mL. This was then placed into a 37 °C incubator for 18 h until the next day to observe the degree of turbidity of the 96-well plate and measure the absorbance of the wells at 600 nm with a multifunctional microplate reader (SpectraMax iD5, Molecular Devices, Sunnyvale, CA, USA). The absence of turbidity and the measured concentration of absorbance being less than the opposing group was taken as the MIC. The positive control used ampicillin at the same final concentration as Brevinin-1BW, the negative control used 50 μL of MH medium mixed with 50 μL of 2 × 10^6 CFU/mL bacterial solution, and the blank contained only 100 μL of MH medium. Three replicate wells were set up for each experiment, and each experiment was repeated three times. The MIC and all concentrations above the MIC of bacterial solution coated on MHA solid medium were placed into 37 °C incubator incubation for 18 h. The lowest concentration resulting in no colony growth was taken as the minimum bactericidal concentration (MBC).

HCT116 = format: cell-based, human; conditions: 24 h
Method: (§2) Medium was prepared to contain 10% FBS (TransGen Biotech, China) and 1% penicillin-streptomycin (Biosharp, Guangzhou, China). A549, U-2OS, HePG2, HaCaT, HUVEC, and 293T cells were cultured in DMEM medium (Gibco, New York, NY, USA). A375, HCT116, Hela, and RAW264.7 cells were cultured in RPMI 1640 medium (Gibco, New York, NY, USA). The cytotoxicity of Brevinin-1BW was determined using the Cell Counting Kit-8 as follows: detached the cells from cell culture flasks with 0.25% trypsin, counted with a hemocytometer plate and then prepared into a cell suspension containing 5 × 10^3 cells/mL. Then, 90 μL of the cell suspension was inoculated into a 96-well plate and incubated at 37 °C in a 5% CO2-humidified atmosphere for 24 h. A 10 μL volume of the peptide was subsequently added to each well and co-incubated with the cells for 24 h. Then, 10 μL of CCK8 (Abbkine, Wuhan, China) was added to each well and incubated for a further 2 h. The absorbance of each well at 450 nm was measured using a multifunctional enzyme marker. […] Three replicate wells were set up for each experiment, and each experiment was repeated three times. The formula for calculating the cell viability is shown below.

293T = format: cell-based, human; conditions: 24 h
Method: as §2

HaCaT = format: cell-based, human; conditions: 24 h
Method: as §2

A375 = format: cell-based, human; conditions: 24 h
Method: as §2

A549 = format: cell-based, human; conditions: 24 h
Method: as §2

HUVEC = format: cell-based, human; conditions: 24 h
Method: as §2

U-2OS = format: cell-based, human; conditions: 24 h
Method: as §2

HePG2 = format: cell-based, human; conditions: 24 h
Method: as §2

Hela = format: cell-based, human; conditions: 24 h
Method: as §2

[2] = test system: S. aureus (MDR ATCC29213); assay: microbe, parasite or virus in culture; format: cell-based, Staphylococcus aureus; conditions: ATCC29213, 18 h
Method: as §1

S. aureus (ATCC25923) = assay: microbe, parasite or virus in culture; format: cell-based, Staphylococcus aureus
Method: as §1

[3] = test system: C. koseri (CI 1611SED223); assay: microbe, parasite or virus in culture; format: cell-based, Citrobacter koseri; conditions: 18 h
Method: as §1

sheep erythrocytes = format: cell-based; conditions: red cells of sheep, 2 h
Method: A hemolytic assay of Brevinin-1BW was conducted using sheep erythrocytes (Solarbio, Beijing, China) at a concentration of 2% (v/v) of erythrocyte suspension. […] After centrifugation at 1000 rpm for 15 min, the absorbance of the supernatant was analyzed using a multifunctional enzyme standardizer with the wavelength set at 570 nm. The experiment was repeated three times. […] Haemolysis%=(A0−A2)/(A0−A1)×100

[4] = test system: P. aeruginosa (ATCC27853); assay: microbe, parasite or virus in culture; format: cell-based, Pseudomonas aeruginosa; conditions: ATCC27853, 18 h
Method: as §1

DPPH radical scavenging = conditions: at 3.125 μg/mL, 37 °C, 30 min in the dark, absorbance 517 nm; without concentration dependence
Method: DPPH^+ scavenging capacity: A 30 mL volume of […], Shanghai, China) solution was prepared with anhydrous ethanol and adjusted to reach an OD517 nm = 0.7. […] The Brevinin-1BW and DPPH solutions were mixed in equal volumes as the experimental group, incubated at 37 °C in the dark for 30 min, and then measured for the absorbance as A2. Vitamin C was used as the positive control. Its clearance rate was calculated according to the following formula: […]

SMILES: CC[C@H](C)[C@@H]1NC(=O)[C@H](CCCCN)NC(=O)[C@@H](NC(=O)[C@H](Cc2ccccc2)NC(=O)[C@@H](NC(=O)[C@@H](NC(=O)[C@@H]2CCCN2C(=O)[C@H](CC(C)C)NC(=O)[C@H](Cc2ccccc2)NC(=O)[C@H](CO)NC(=O)[C@H](C)NC(=O)[C@H](C)NC(=O)[C@H](CC(C)C)NC(=O)CNC(=O)[C@H](C)NC(=O)[C@H](CC(C)C)NC(=O)[C@H](CC(C)C)NC(=O)[C@@H]2CCCN2C(=O)[C@H](CC(C)C)NC(=O)[C@@H](N)Cc2ccccc2)[C@@H](C)O)[C@@H](C)CC)CSSC[C@@H](C(=O)O)NC(=O)[C@H](CCCCN)NC(=O)[C@H](CCCNC(=N)N)NC(=O)[C@H](CO)NC1=O [Brevinin-1BW] (H-FLPLLAGLAASFLPTIFCKISRKC-OH; disulfide 18-24)
- MBC [1]: 25 µg/mL (≈ 9.58 µM)
- MIC [1]: 12.5 µg/mL (≈ 4.79 µM)
- CC50 (HCT116): 35.44 ± 0.47 µg/mL (≈ 13.6 µM)
- CC50 (293T): 28.34 ± 1.08 µg/mL (≈ 10.9 µM)
- CC50 (HaCaT): 36.84 ± 1.44 µg/mL (≈ 14.1 µM)
- CC50 (A375): 23.79 ± 0.80 µg/mL (≈ 9.12 µM)
- CC50 (A549): 27.64 ± 0.41 µg/mL (≈ 10.6 µM)
- CC50 (HUVEC): 43.62 ± 0.77 µg/mL (≈ 16.7 µM)
- CC50 (U-2OS): 39.20 ± 0.40 µg/mL (≈ 15 µM)
- CC50 (HePG2): 25.42 ± 0.49 µg/mL (≈ 9.75 µM)
- CC50 (Hela): 37.62 ± 0.91 µg/mL (≈ 14.4 µM)
- MBC [2]: 25 µg/mL (≈ 9.58 µM)
- MIC [2]: 6.25 µg/mL (≈ 2.4 µM)
- MBC (S. aureus (ATCC25923); ATCC25923, 18 h): 6.25 µg/mL (≈ 2.4 µM)
- MIC (S. aureus (ATCC25923); ATCC25923, 18 h): 6.25 µg/mL (≈ 2.4 µM)
- reduction of viability (S. aureus (ATCC25923); S. aureus, at 6.25 μg/mL): 99.9%
- MBC [3]: >100 µg/mL
- MIC [3]: 50 µg/mL (≈ 19.2 µM)
- HC50 (50% hemolytic concentration) (sheep erythrocytes): 35.8 µg/mL
- MBC [4]: >100 µg/mL
- MIC [4]: 100 µg/mL (≈ 38.3 µM)
- scavenging of DPPH radicals (DPPH radical scavenging): more than 70%
